Laboratory results from patent US20220380801A1, “TRIPARTITE SYSTEMS FOR PROTEIN DIMERIZATION AND METHODS OF USE” (priority 2019, published 2022).

Tested on: mutant HCV PR: simeprevir: PRSIM_23 complex
Test: HTRF disruption of pre-formed mutant complexes
Type: binding, Hepatitis C virus subtype 1a
Details: mutation at position 136
Experimental: Methods of determining whether the competing small molecule is capable of binding to the target protein in the T-SM complex and displacing the small molecule from the T-SM complex include assays where a pre-formed tripartiate complex is generated and the ability of the binding member to bind the T-SM complex is measured (e.g. by a homogeneous time-resolved florescence (HTFR) binding assay) as increasing concentrations of the competing small molecule are added. A competing small molecule may be capable to displaying the small molecule from the T-SM complex if it is capable of inhibiting binding of inhibiting the binding member from binding the T-SM complex by at least 50%, by at least 75%, by at least 80%, by at least 85%, by at least 90%, or by at least 95% when measured using the HTFR binding assay. In some embodiments, the competing small molecule is asunaprevir, paritaprevir, vaniprevir, grazoprevir, danoprevir or glecaprevir. The binding member, target protein and small molecule using in the method may be as further defined herein in relation to other aspects of the disclosure.
To further characterise the mutations made to the HCV NS3/4A PR, we investigated whether the small molecules were able to disrupt pre-formed mutant HCV PR: simeprevir: PRSIM_23 complexes. […] The degree of inhibition is dependent on the specific mutation made.

Compound | inhibition of pre-formed mutant complex
C=C[C@@H]1C[C@]1(NC(=O)[C@@H]1C[C@@H](Oc2ncc(OC)c3ccc(Cl)cc23)CN1C(=O)[C@@H](NC(=O)OC(C)(C)C)C(C)(C)C)C(=O)NS(=O)(=O)C1CC1 [asunaprevir] | more pronounced inhibition
CC(C)(C)OC(=O)N[C@H]1CCCCC/C=C\[C@@H]2C[C@@]2(C(=O)NS(=O)(=O)C2CC2)NC(=O)[C@@H]2C[C@@H](OC(=O)N3Cc4cccc(F)c4C3)CN2C1=O [danoprevir] | more pronounced inhibition
CC(C)(C)[C@@H]1NC(=O)O[C@@H]2CCC[C@H]2OC/C=C/C(F)(F)c2nc3ccccc3nc2O[C@@H]2C[C@@H](C(=O)N[C@]3(C(=O)NS(=O)(=O)C4(C)CC4)C[C@H]3C(F)F)N(C2)C1=O [glecaprevir] | more pronounced inhibition
C=C[C@@H]1C[C@]1(NC(=O)[C@@H]1C[C@@H]2CN1C(=O)[C@H](C(C)(C)C)NC(=O)O[C@@H]1C[C@H]1CCCCCc1nc3ccc(OC)cc3nc1O2)C(=O)NS(=O)(=O)C1CC1.O [grazoprevir] | more pronounced inhibition
Cc1cnc(C(=O)N[C@H]2CCCCC/C=C\[C@@H]3C[C@@]3(C(=O)NS(=O)(=O)C3CC3)NC(=O)[C@@H]3C[C@@H](Oc4nc5ccccc5c5ccccc45)CN3C2=O)cn1 [paritaprevir] | more pronounced inhibition
CC[C@@H]1C[C@]1(NC(=O)[C@@H]1C[C@@H]2CN1C(=O)[C@H](C(C)(C)C)NC(=O)OCC(C)(C)CCCCc1cccc3c1CN(C3)C(=O)O2)C(=O)NS(=O)(=O)C1CC1 [vaniprevir] | more pronounced inhibition
